Test results published in patent US20170327598A1, “SINGLE DOMAIN ANTIBODIES DIRECTED AGAINST INTRACELLULAR ANTIGENS” (SINGH MOLECULAR MEDICINE, LLC, priority 2014, published 2017).
Values joined by “and” are separate entries in the source; they are usually repeats but may differ in a detail not shown here. Identical values can stand only once.

What was measured:
[1] = tested on: BT474 cells; assay: MTT proliferation assay, BT474; type: cell-based, human; conditions: BT474, 72 hours
[2] = tested on: translocation of Stat3 to the nucleus; assay: Stat3 immunofluorescence after IL-6 treatment (HEp-2, MDA-MB-231, PANC-1); type: cell-based; conditions: sdAb 1:10 in media overnight, 100 ng/ml IL-6 15 min
Description: The cells were grown to confluence on chamber slides. […] As a negative control, no antibody was added to duplicate chambers. The slides were washed, and either serum-free media alone or 100 ng/ml recombinant human IL-6 (Peprotech, Rocky Hill, N.J.) in serum free media was added to the slides for 15 min at 37° C. The media was then removed and the chamber slides were fixed in ice cold 100% methanol for 10 min at −20° C.
Immunofluorescence assays were performed on the fixed slides. First, the slides were blocked with 3% BSA in PBS was done for one hour at room temperature. The primary antibody, Stat3(124H6) mouse monoclonal antibody (Cell Signaling Technology, Danvers, Mass.) was added to the slides at a 1:1000 dilution overnight in dark box at 4° C. The following day, the slides were washed and the secondary Alexa Fluor 488 anti-mouse IgG antibody (Cell Signaling Technology) was added at a 1:500 dilution and incubated for 1 hour at room temperature. The slides were then washed, mounted with mounting media and viewed with a fluorescence microscope.

[3] = tested on: DU145 tumor xenograft; assay: DU145 xenograft study, Example 11
[4] = tested on: STAT5; assay: Biacore 3000, sdAb immobilized, STAT5 analyte (Example 23); type: binding
[5] = tested on: ARPE-19 cells; assay: BCA protein content of ARPE-19 cell lysate, Experiment 1; type: cell-based; conditions: 24 Hr; for Protein Conc.: cell lysate
Description: For Experiment 1, the retinal cell line ARPE-19 (ATCC, Manassas, Va.) were plated at 5×10^4 cells/well into a 24-well plate and grown to confluence. All incubations with cells were performed in a 37° C., 5% CO2 humidified incubator. The media was replaced with growth media (DMEM:HAM12) containing 1% FBS and incubated overnight. […] At that time, the supernatant was removed and stored at <−65° C. for ELISA analysis. Cells were lysed using RIPA lysis buffer (ThermoFisher Scientific, Rockford, Ill.) and the protein content of the cell lysate was measured in the BCA assay (ThermoFisher Scientific) according to the kit instructions. VEGF-A was measured utilizing the Human VEGF-A ELISA Kit (ThermoFisher Scientific) in accordance with the kit instructions.
ELISA results were reported as pictograms (pg) VEGF-A/mL and then adjusted for the dilution of samples in the ELISA (1:2 for Experiment 1 and 1:5 for Experiment 2). The ELISA results were then normalized for protein content. […] The positive control (PC) (anti-STAT3 monoclonal antibody) ranged from 48.8 to 66.4 pg VEFG/[…] slightly lower but overlapping the range seen with the negative control. Statistical analysis confirmed that the variation seen was not statistically significant (P value >0.05). The samples collected at 72 hours were higher than the top standard curve.

[6] = tested on: STAT3 reporter, induction by interleukin-6; assay: STAT3 reporter GloResponse SIE-luc2P/HEK293 cell assay, IL-6 induction; type: cell-based; conditions: for decrease in RLU: highest concentration;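 for all read-outs here: IL-6 added at 40 ng/mL (EC80) for roughly one day after pretreatment, luciferase luminescence read with Bio-Glo reagent, untreated +IL6 wells serve as control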
[7] = tested on: PANC-1 xenograft; assay: PANC-1 xenograft, sdAb alone, Gemcitabine alone or combination, Example 19; conditions: SBT-100 5 mg/kg BID, Gemcitabine 20 mg/kg, or both
[8] = tested on: human STAT3; assay: Biacore 3000 protein binding, STAT3 ligand immobilized (Example 22); conditions: sdAb as analyte
[9] = tested on: GloResponse SIE-luc2P/HEK 293 cells; assay: BCA protein concentration of reporter cells run in parallel; type: cell-based; conditions: highest concentration
[10] = tested on: HT1080 cells; assay: Anti-proliferative effect, HT1080 cells; type: cell-based; conditions: for Absorbance ± S.E.: 72 hr
[11] = tested on: PANC-1 cells; assay: PANC-1 growth inhibition with or without Gemcitabine; conditions: SBT-100 100 μg/ml alone, 72 hours (Table 44)
[12] = tested on: MCF-7 cells; assay: MTT proliferation assay, MCF-7; type: cell-based, human; conditions: MCF-7, 72 hours
[13] = 24 Hour Treatment Prior to IL6 Induction, high conc.: VHH13 55.8 μg/mL, VHH14 84.3 μg/mL, BB1608 4.16 μM, VHH69 50.5 μg/mL
[14] = 24 Hour Treatment Prior to IL6 Induction, low conc.: VHH13, VHH14, VHH69 10 μg/mL, BB1608 2 μM
[15] = 48 Hour Treatment Prior to IL6 Induction, high conc.: VHH13 55.8 μg/mL, VHH14 84.3 μg/mL, BB1608 4.16 μM, VHH69 50.5 μg/mL
[16] = 48 Hour Treatment Prior to IL6 Induction, low conc.: VHH13, VHH14, VHH69 10 μg/mL, BB1608 2 μM

## Anti-STAT3 VHH13: anti-STAT3 single domain antibody, SEQ ID NO:3; bacterially produced form referred to as SBT-100
[1]; 0.39 μg/ml
  Mean Abs: 0.322
[1]; 3.13 μg/ml
  Mean Abs: 0.446
[1]; 6.25 μg/ml
  Mean Abs: 0.469
[1]; 25 μg/ml
  Mean Abs: 0.256
[1]; 50 μg/ml
  Mean Abs: 0.145
[1]; 100 μg/ml
  Mean Abs: 0.046
[1]; 200 μg/ml
  Mean Abs: 0.040
[2]
  translocation of Stat3 to the nucleus following IL-6 treatment: blocks the translocation of Stat3 to the nucleus
[3]; 5 mg/kg bw IP BIDx14
  % treatment/control: 74.8%
  tumor doubling time: 18.19 days
[3]; 5 mg/kg bw IP BIDx14, end of the study
  mean tumor growth inhibition: 26.6%
[3]; 5 mg/kg bw IP BIDx14, last day of dosing (Day 14)
  mean tumor size (±SE): 364.14±51.64
[3]; 5 mg/kg bw IP BIDx14, termination (day 28)
  mean tumor size (±S.E.): 601.83±131.51
[4]; Biacore, sdAb immobilized
  binding of STAT5: bound
[4]; sdAb immobilized (STAT5-31 440 RU, anti-KRAS 140 RU, VHH13 1000 RU), STAT5 protein analyte 500 nM
  Result: Binding
[5]; 0.1 μg/well
  Total protein per well: 12 and 16 and 18
  Protein Conc.: 245 µg/mL and 323 µg/mL and 357 µg/mL
[5]; 0.5 μg/well
  Total protein per well: 16 and 13
  Protein Conc.: 315 µg/mL and 268 µg/mL and 206 µg/mL
[6]; [13]
  Average RLU: 11498 RLU
  Average RLU with Media Blank: 11473 RLU
  Luminescence (RLU), single wells: 10992 RLU and 11445 RLU and 12058 RLU
[6]; [14]
  Average RLU: 175275 RLU
  Average RLU with Media Blank: 175249 RLU
  Luminescence (RLU), single wells: 164397 RLU and 169890 RLU and 191537 RLU
[6]; [15]
  Average RLU: 89 RLU
  Average RLU with Media Blank: 57 RLU
  Luminescence (RLU), single wells: 104 RLU and 96 RLU
[6]; [16]
  Average RLU: 182218 RLU
  Average RLU with Media Blank: 182185 RLU
  Luminescence (RLU), single wells: 168740 RLU and 188307 RLU and 189606 RLU
[6]; 24 hours and 48 hours treatment prior to IL-6
  effect on IL-6 induction of STAT3 reporter: Inhibition of IL-6
[6]; 24 hours
  decrease in RLU: greater than 10 fold
[6]; 48 hours
  decrease in RLU: greater than 1,000 fold
[7]; Day 1
  TUMOR VOLUMES (mm^3) Mean: 107.34 mm^3
[7]; Day 5
  TUMOR VOLUMES (mm^3) Mean: 145.86 mm^3
[7]; Day 8
  TUMOR VOLUMES (mm^3) Mean: 149.12 mm^3
[7]; Day 12
  % INHIBITION OF CONTROL (tumor growth): 20.70%
  TUMOR VOLUMES (mm^3) Mean: 188.78 mm^3
[7]; Day 15
  TUMOR VOLUMES (mm^3) Mean: 233.25 mm^3
[7]; Day 19
  % INHIBITION OF CONTROL (tumor growth): 18.37%
  TUMOR VOLUMES (mm^3) Mean: 332.68 mm^3
[7]; Day 22
  % INHIBITION OF CONTROL (tumor growth): 19.17%
  TUMOR VOLUMES (mm^3) Mean: 390.59 mm^3
[8]
  binding to STAT3 ligand: bound
[9]
  decrease in protein: approximately 2 fold
[10]; 25 μg/ml
  Absorbance ± S.E.: 1.09 ± 0.01
[10]; 50 μg/ml
  Absorbance ± S.E.: 0.42 ± 0.04
[10]; 100 μg/ml
  Absorbance ± S.E.: 0.27 ± 0.01
[10]; 200 μg/ml
  Absorbance ± S.E.: 0.22 ± 0.02
[10]; HT1080 cells
  IC50: 33 µg/mL
[11]
  Absorbance: 0.333
[12]; 0.39 μg/ml
  Mean Abs: 0.818
[12]; 3.13 μg/ml
  Mean Abs: 0.689
[12]; 6.25 μg/ml
  Mean Abs: 0.435
[12]; 25 μg/ml
  % Inhibition: 62.1%
  Mean Abs: 0.212
[12]; 50 μg/ml
  % Inhibition: 89.9%
  Mean Abs: 0.057
[12]; 100 μg/ml
  % Inhibition: 93.2%
  Mean Abs: 0.038
[12]; 200 μg/ml
  % Inhibition: 92.9%
  Mean Abs: 0.040
